Converted amounts (≈) assume the structure as drawn.
Tests used:
Test in all cases: ≥ marks a high value that may be exact or a test limit, other limits are often not marked, values filed in µg/mL are converted to µM
[1] = system: Pseudomonas aeruginosa ATCC BAA-1744
[2] = system: Acinetobacter baumannii ATCC BAA-747
[3] = system: Pseudomonas aeruginosa ATCC 9721
[4] = system: Pseudomonas aeruginosa ATCC 35032
[5] = system: Pseudomonas aeruginosa ATCC 15442
[6] = system: Acinetobacter baumannii ATCC BAA-1605
[7] = system: Pseudomonas aeruginosa 1109
[8] = system: Acinetobacter baumannii NR-13382
[9] = system: Pseudomonas aeruginosa 1131
[10] = system: Acinetobacter baumannii ATCC 19606
[11] = system: Acinetobacter baumannii NR-13375
[12] = system: Pseudomonas aeruginosa ATCC 9027
[13] = system: Pseudomonas aeruginosa ATCC 27853
[14] = system: Pseudomonas aeruginosa 1125
[15] = system: Acinetobacter baumannii NR-9667
[16] = system: Pseudomonas aeruginosa 1017
[17] = system: Pseudomonas aeruginosa ATCC 10145
[18] = system: Acinetobacter baumannii NR-17784
[19] = system: Pseudomonas aeruginosa ATCC 25619
[20] = system: Streptococcus sanguinis ATCC 10556
[21] = system: Streptococcus oralis ATCC 9811
[22] = system: Streptococcus gordonii ATCC 10558
Escherichia coli UB1005 = system: Escherichia coli UB1005
Bacillus cereus C737 = system: Bacillus cereus C737
[23] = system: Pseudomonas aeruginosa PAO1
[24] = system: Staphylococcus aureus USA 300
Escherichia coli K-12 = system: Escherichia coli K-12
[25] = system: Staphylococcus aureus NCTC 8325-4
[26] = system: Pseudomonas aeruginosa PA-W1
Klebsiella pneumoniae = system: Klebsiella pneumoniae
[27] = system: Pseudomonas aeruginosa PA-W14
Staphylococcus aureus = system: Staphylococcus aureus
[28] = system: Staphylococcus aureus USA 300 LAC
[29] = system: Escherichia coli ATCC 25922
[30] = system: Klebsiella pneumoniae ATCC 13883
[31] = system: Bacillus subtilis ATCC 6633
[32] = system: Staphylococcus aureus ATCC 700699
[33] = system: Escherichia coli ATCC 9637
[34] = system: Staphylococcus aureus ATCC 29213
[35] = system: Staphylococcus aureus ATCC 33592
[36] = system: Candida albicans ATCC 10231
Sporothrix schenckii = system: Sporothrix schenckii
[37] = system: Staphylococcus aureus ATCC 25923
[38] = system: Pseudomonas aeruginosa ATCC BAA-427
[39] = system: Candida parapsilosis ATCC 22019
Cryptococcus neoformans = system: Cryptococcus neoformans
[40] = system: Staphylococcus aureus ATCC BAA-44
[41] = system: Klebsiella pneumoniae ATCC 27736
[42] = system: Staphylococcus aureus ATCC 700698

CC[C@H](C)[C@H](NC(=O)[C@H](CCCN=C(N)N)NC(=O)[C@H](CCCN=C(N)N)NC(=O)[C@H](CC(C)C)NC(=O)[C@@H](N)Cc1c[nH]c2ccccc12)C(=O)N[C@@H](CCCCN)C(=O)N[C@@H](C)C(=O)N[C@@H](Cc1c[nH]c2ccccc12)C(=O)N[C@@H](CC(C)C)C(=O)N[C@@H](CCCN=C(N)N)C(=O)N[C@@H](CCCN=C(N)N)C(=O)N[C@@H](CCCCN)C(=O)N[C@@H](CCCN=C(N)N)C(=O)N[C@@H](CCCCN)C(=O)O [WLRRIKAWLRRKRK]
MIC [1]: 16 µM (≈ 31.5 µg/mL) | MIC [2]: 8 µM (≈ 15.7 µg/mL) | MIC [3]: 16 µM (≈ 31.5 µg/mL) | MIC [4]: 16 µM (≈ 31.5 µg/mL) | MIC [5]: 16 µM (≈ 31.5 µg/mL) | MIC [6]: 16 µM (≈ 31.5 µg/mL) | MIC [7]: 8 µM (≈ 15.7 µg/mL) | MIC [8]: 16 µM (≈ 31.5 µg/mL) | MIC [9]: 16 µM (≈ 31.5 µg/mL) | MIC [10]: 16 µM (≈ 31.5 µg/mL) | MIC [11]: 8 µM (≈ 15.7 µg/mL) | MIC [12]: 4 µM (≈ 7.87 µg/mL) | MIC [13]: 8 µM (≈ 15.7 µg/mL) | MIC [14]: ≥ 32 µM | MIC [15]: ≥ 32 µM | MIC [16]: ≥ 64 µM | MIC [17]: 16 µM (≈ 31.5 µg/mL) | MIC [18]: 4 µM (≈ 7.87 µg/mL) | MIC [19]: 4 µM (≈ 7.87 µg/mL)

CC[C@H](C)[C@H](NC(=O)[C@H](CCC(N)=O)NC(=O)[C@H](CCC(=O)O)NC(=O)[C@H](CCCCN)NC(=O)[C@@H]1CCCN1C(=O)[C@H](CC(C)C)NC(=O)[C@H](CS)NC(=O)[C@H](CO)NC(=O)[C@H](CC(C)C)NC(=O)[C@@H](NC(=O)[C@H](C)NC(=O)[C@H](CS)NC(=O)[C@H](CCCN=C(N)N)NC(=O)CNC(=O)CNC(=O)CNC(=O)CNC(=O)[C@H](Cc1c[nH]c2ccccc12)NC(=O)[C@@H](NC(=O)[C@H](Cc1cnc[nH]1)NC(=O)[C@H](CCSC)NC(=O)CNC(=O)[C@@H]1CCCN1C(=O)[C@H](C)NC(=O)[C@H](CC(=O)O)NC(=O)[C@@H]1CCCN1C(=O)[C@H](CC(C)C)NC(=O)[C@H](CCCCN)NC(=O)[C@@H](N)CCCN=C(N)N)[C@@H](C)O)C(C)C)C(=O)O [RKLPDAPGMHTWGGGGRCAVLSCLPKEQI]
MIC [20]: ≥ 227 µM | MIC [21]: ≥ 208 µM | MIC [22]: ≥ 294 µM

CC[C@H](C)[C@H](NC(=O)[C@H](CC(=O)O)NC(=O)[C@H](Cc1ccccc1)NC(=O)[C@H](CC(C)C)NC(=O)CN)C(=O)N[C@H](C(=O)N[C@@H](CCCCN)C(=O)N[C@@H](CCCCN)C(=O)N[C@H](C(=O)N[C@H](C(=O)NCC(=O)N[C@@H](C)C(=O)N[C@@H](CC(C)C)C(N)=O)C(C)C)C(C)C)C(C)C [GLFDIVKKVVGAL]
MIC (Escherichia coli UB1005): 23.6 µM (≈ 32 µg/mL) | MIC (Bacillus cereus C737): ≥ 47.1 µM | MIC [23]: > 94.2 µM | MIC [24]: 11.8 µM (≈ 16 µg/mL)

NCCCC[C@H](NC(=O)[C@H](Cc1c[nH]c2ccccc12)NC(=O)[C@H](Cc1c[nH]c2ccccc12)NC(=O)[C@H](CCCCN)NC(=O)[C@H](CCCCN)NC(=O)[C@H](Cc1c[nH]c2ccccc12)NC(=O)[C@H](Cc1c[nH]c2ccccc12)NC(=O)[C@H](CCCCN)NC(=O)[C@H](CCCCN)NC(=O)[C@@H](N)Cc1c[nH]c2ccccc12)C(N)=O [WKKWWKKWWK]
MIC (Escherichia coli K-12): 15.6 µM (≈ 24.8 µg/mL) | MIC [25]: 15.6 µM (≈ 24.8 µg/mL) | MIC [26]: 31.3 µM (≈ 49.7 µg/mL) | MIC (Klebsiella pneumoniae): 62.5 µM (≈ 99.3 µg/mL) | MIC [23]: 15.6 µM (≈ 24.8 µg/mL) | MIC [27]: ≥ 125 µM | MIC (Staphylococcus aureus): 15.6 µM (≈ 24.8 µg/mL)

CC[C@H](C)[C@H](NC(=O)[C@H](CCCN=C(N)N)NC(=O)[C@H](CCCN=C(N)N)NC(=O)[C@H](CC(C)C)NC(=O)[C@H](CCCN=C(N)N)NC(=O)[C@H](Cc1c[nH]c2ccccc12)NC(=O)[C@@H](N)Cc1c[nH]c2ccccc12)C(=O)N[C@@H](Cc1c[nH]c2ccccc12)C(N)=O [WWRLRRIW]
MIC [28]: 12.5 µM (≈ 15.9 µg/mL) | MIC [23]: 12.5 µM (≈ 15.9 µg/mL) | MIC [29]: 25 µM (≈ 31.8 µg/mL) | MIC [30]: 25 µM (≈ 31.8 µg/mL) | MIC [24]: 12.5 µM (≈ 15.9 µg/mL)

CC[C@H](C)[C@H](NC(=O)[C@H](C)NC(=O)CNC(=O)[C@H](CCCCN)NC(=O)[C@@H](NC(=O)[C@H](CC(C)C)NC(=O)[C@H](Cc1c[nH]c2ccccc12)NC(=O)CNC(=O)[C@H](Cc1ccccc1)NC(=O)[C@@H](N)Cc1ccccc1)[C@@H](C)CC)C(=O)N[C@@H](Cc1cnc[nH]1)C(=O)N[C@@H](C)C(=O)NCC(=O)N[C@@H](CCCCN)C(=O)N[C@@H](C)C(=O)N[C@H](C(=O)N[C@@H](Cc1cnc[nH]1)C(=O)N1CCC[C@H]1C(=O)N[C@@H](CC(C)C)C(=O)N[C@H](C(=O)N[C@@H](Cc1cnc[nH]1)C(=O)N[C@@H](CCCN=C(N)N)C(=O)N[C@@H](CCCN=C(N)N)C(=O)N[C@@H](CCCN=C(N)N)C(=O)N[C@@H](Cc1cnc[nH]1)C(=O)O)[C@@H](C)CC)[C@@H](C)CC [FFGWLIKGAIHAGKAIHPLIHRRRH]
MIC [31]: 3 µM (≈ 8.8 µg/mL) | MIC [32]: 3 µM (≈ 8.8 µg/mL) | MIC [33]: 3 µM (≈ 8.8 µg/mL) | MIC [34]: 6.8 µM (≈ 19.9 µg/mL) | MIC [35]: 1.6 µM (≈ 4.69 µg/mL) | MIC [36]: 13.6 µM (≈ 39.9 µg/mL) | MIC (Sporothrix schenckii): 27.2 µM (≈ 79.8 µg/mL) | MIC [37]: 3 µM (≈ 8.8 µg/mL) | MIC [38]: 6.8 µM (≈ 19.9 µg/mL) | MIC [39]: 13.6 µM (≈ 39.9 µg/mL) | MIC (Cryptococcus neoformans): 13.6 µM (≈ 39.9 µg/mL) | MIC [40]: 3 µM (≈ 8.8 µg/mL) | MIC [41]: 13.6 µM (≈ 39.9 µg/mL) | MIC [42]: 3 µM (≈ 8.8 µg/mL)
